Several values for one entry are separate records, joined by “and”; a condition that tells them apart may be missing. Identical values can stand only once. Activity calls are given as the source filed them.
Key:
[1] = target: Palmitoyl-protein thioesterase ABHD10, mitochondrial (Mus musculus, UniProt Q6PE15); assay: Late stage assay provider results from the probe development effort to identify inhibitors of PME-1: fluorescence-based dose response biochemical gel-based competitive Activity-Based Protein Profiling (ABPP) inhibition of ABHD10 Set 1.; type: functional
[2] = Counterscreen for […] of the human trace amine associated receptor 1 (TAAR1): Fluorescence-based cell-based high throughput dose response assay to identify nonselective Ga16 agonists.; type: functional
[3] = target: T1, Trace amine-associated receptor 1 (Homo sapiens, UniProt Q96RJ0); assay: Fluorescence-based cell-based high throughput dose response assay to identify antagonists of the human trace amine associated receptor 1 (TAAR1).; type: functional
T1 sequence (Q96RJ0 whole entry): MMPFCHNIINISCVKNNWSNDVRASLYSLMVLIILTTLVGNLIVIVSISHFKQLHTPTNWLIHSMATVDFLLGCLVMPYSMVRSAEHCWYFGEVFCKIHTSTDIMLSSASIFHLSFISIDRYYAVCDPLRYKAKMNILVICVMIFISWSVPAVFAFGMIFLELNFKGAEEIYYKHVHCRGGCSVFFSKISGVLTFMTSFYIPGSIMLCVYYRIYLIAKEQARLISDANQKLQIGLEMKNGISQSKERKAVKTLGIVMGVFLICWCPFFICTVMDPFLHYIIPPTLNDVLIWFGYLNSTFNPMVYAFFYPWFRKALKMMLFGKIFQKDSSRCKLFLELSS

[4] = Counterscreen for antagonists of the human trace amine associated receptor 1 (hTAAR1): Fluorescence-based cell-based high throughput dose response assay to identify nonselective Ga16 antagonists.; type: functional
[5] = target: T1, Trace amine-associated receptor 1; assay: Counterscreen for antagonists of the human trace amine associated receptor 1 (hTAAR1): Fluorescence-based cell-based high throughput dose response assay to identify TAAR1 Agonists.; type: functional
[6] = target: T2, Polyadenylate-binding protein 1 (Homo sapiens, UniProt P11940); assay: PABP1 MLLE–PAM2 interaction inhibitors, dose response, miRNA deadenylation inhibitor project, biochemical, fluorescence polarization, Cy5-PAM2 peptide, secondary (AID 602260); type: functional; details: read-out: IC50_Mean
[7] = target: T2, Polyadenylate-binding protein 1; assay: PABP1 MLLE–PAM2 binding inhibitor potency, dose response, biochemical, fluorescence polarization, FITC-PAM2 peptide (AID 602259); type: functional; details: read-out: IC50_Mean
[8] = target: Long-chain-fatty-acid--AMP ligase FadD28 (Mycobacterium tuberculosis, UniProt P9WQ59); assay: Fluorescence polarization aasay to screen for inhibitors that compete for the binding of FadD28 to a bisubstrate Measured in Biochemical System Using Plate Reader - 2147-01_Inhibitor_Dose_CherryPick_Activity.; type: functional, Mycobacterium tuberculosis H37Rv
[9] = HEK293 cell viability, dose response, counter-screen for EBV LMP1 inhibitor project, dry powder, set 2 (AID 624374); type: functional
[10] = target: Botulinum neurotoxin type F (Clostridium botulinum, UniProt P30996); assay: High-throughput multiplex microsphere dose response for inhibitors of toxin protease, specifically Botulinum neurotoxin light chain F protease, compounds from Cherry Pick 02.; type: functional; details: read-out: EC50_MICROM
[11] = target: Beta Lactamase (Pseudomonas aeruginosa, UniProt Q932Y6);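 note: confirmatory high-throughput screen measuring VIM-2 metallo-beta-lactamase inhibition by epi-absorbance in dose response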
[12] = target: Beta-lactamase (Pseudomonas aeruginosa, UniProt Q79MP6);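 note: biochemical dose-response test of metallo-beta-lactamase enzyme inhibition, read out by epi-absorbance; purified recombinant IMP-1 metallo-beta-lactamase with nitrocefin as substrate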
[13] = target: Beta-lactamase (Salmonella choleraesuis (strain SC-B67), UniProt Q5J463)
[14] = target: ORF 73 (Human herpesvirus 8, UniProt O40947); assay: inhibitors of C-LANA binding to LBS DNA, dose response, biochemical, fluorescence polarization, cherry-picked samples (AID 504725); design: species or system Human gammaherpesvirus 8;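 note: fluorescence polarization of a labeled DNA duplex reporting LANA DNA binding; potency is for inhibitors that block LANA binding to the DNA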
[15] = NIH/3T3 fibroblast cytotoxicity, dose response, cytotoxicity control for T. cruzi growth inhibitor project, cell-based, cherry-pick samples, set 2 (AID 651817); type: functional; details: NIH3T3
[16] = intracellular Trypanosoma cruzi inhibitors in host cells – cell-based, plate reader, cherry-pick samples, set 3, dose response (AID 651818); type: functional;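 note: compounds incubated with infected cells for about four days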
[17] = target: T3, Sentrin-specific protease 8 (Homo sapiens, UniProt Q96LD8); type: functional
T3 sequence (Q96LD8 whole entry): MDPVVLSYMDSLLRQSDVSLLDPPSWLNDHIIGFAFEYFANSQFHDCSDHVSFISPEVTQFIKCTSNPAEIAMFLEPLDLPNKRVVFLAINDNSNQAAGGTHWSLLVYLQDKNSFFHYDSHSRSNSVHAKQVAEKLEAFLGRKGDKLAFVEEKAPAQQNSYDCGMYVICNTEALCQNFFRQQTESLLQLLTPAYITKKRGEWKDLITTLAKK

[18] = target: T3, Sentrin-specific protease 8; type: functional; remark: listed apart in the source
[19] = target: Mu-type opioid receptor (Homo sapiens, UniProt P35372); type: functional, cell-based;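 note: U2OS cells with beta-arrestin recruitment to OPRM1 by beta-gal complementation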
[20] = target: 5-hydroxytryptamine receptor 2A (Mus musculus, UniProt P35363); type: functional, cell-based;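 note: CHO-K1 cells with tagged receptor and beta-arrestin; agonist potency measured as compound-induced activation of the receptor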
[21] = target: T4, Beta-2 adrenergic receptor (Homo sapiens, UniProt P07550); assay: Dose response for HTS for Beta-2AR agonists via FAP method from Powderset1.; type: functional
[22] = target: T4, Beta-2 adrenergic receptor; assay: beta2AR agonists driving receptor internalization, dose response, cell-based, FAP fluorogen, flow cytometry, cherry pick 1 (AID 588763); type: functional
[23] = target: Broad substrate specificity ATP-binding cassette transporter ABCG2 (Homo sapiens, UniProt Q9UNQ0); assay: ABCG2 efflux pump inhibitors, dose response, Ig-MXP3 cells, flow cytometry (AID 1690); type: functional
[24] = target: T4, Beta-2 adrenergic receptor; assay: Dose response for HTS for Beta-2AR agonists via FAP method from Powderset3.; type: functional
[25] = target: Galanin receptor type 3 (Homo sapiens, UniProt O60755); assay: Fluorescence-based cell-based primary high throughput dose response assay to identify antagonists of the Galanin Receptor 3 (GalR3).; type: functional
[26] = cells; type: functional, cell-based; details: HEK-CNG
[27] = HEK293T cytotoxicity, dose response, cytotoxicity control for miR-122 modulator project, cell-based, inhibitor set, cherry-pick, set 2 (AID 720697); type: functional
[28] = cells; type: functional, cell-based
[29] = target: T1, Trace amine-associated receptor 1; assay: Fluorescence-based cell-based high throughput dose response assay to identify agonists of the human trace amine associated receptor 1 (TAAR1).; type: functional
[30] = target: T1, Trace amine-associated receptor 1; assay: Counterscreen for agonists of the human trace amine associated receptor 1 (hTAAR1): Fluorescence-based cell-based high throughput dose response assay to identify hTAAR1 agonist that also desensitize TAAR1 receptor response.; type: functional
[31] = cells; type: functional, cell-based; remark: listed apart in the source
[32] = target: T5, Low molecular weight phosphotyrosine protein phosphatase (Homo sapiens, UniProt P24666); type: functional; details: read-out: IC50_Mean;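 note: Dose-response confirmation assay measuring inhibition of LMPTP enzyme activity by fluorescence intensity read-out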
T5 sequence (P24666 whole entry): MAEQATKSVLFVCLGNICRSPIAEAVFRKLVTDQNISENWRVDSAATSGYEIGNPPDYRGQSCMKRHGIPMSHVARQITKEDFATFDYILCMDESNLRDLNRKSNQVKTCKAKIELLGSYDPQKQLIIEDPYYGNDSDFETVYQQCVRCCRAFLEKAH

[33] = target: T6, Tyrosine-protein phosphatase non-receptor type 22 (Homo sapiens, UniProt Q9Y2R2); assay: LYP phosphatase inhibition for selectivity, dose response, selectivity assay for LMPTP inhibitor project, biochemical, fluorescence, LYP catalytic domain (AID 652006); type: functional; details: read-out: IC50_Mean
T6 sequence (Q9Y2R2 whole entry): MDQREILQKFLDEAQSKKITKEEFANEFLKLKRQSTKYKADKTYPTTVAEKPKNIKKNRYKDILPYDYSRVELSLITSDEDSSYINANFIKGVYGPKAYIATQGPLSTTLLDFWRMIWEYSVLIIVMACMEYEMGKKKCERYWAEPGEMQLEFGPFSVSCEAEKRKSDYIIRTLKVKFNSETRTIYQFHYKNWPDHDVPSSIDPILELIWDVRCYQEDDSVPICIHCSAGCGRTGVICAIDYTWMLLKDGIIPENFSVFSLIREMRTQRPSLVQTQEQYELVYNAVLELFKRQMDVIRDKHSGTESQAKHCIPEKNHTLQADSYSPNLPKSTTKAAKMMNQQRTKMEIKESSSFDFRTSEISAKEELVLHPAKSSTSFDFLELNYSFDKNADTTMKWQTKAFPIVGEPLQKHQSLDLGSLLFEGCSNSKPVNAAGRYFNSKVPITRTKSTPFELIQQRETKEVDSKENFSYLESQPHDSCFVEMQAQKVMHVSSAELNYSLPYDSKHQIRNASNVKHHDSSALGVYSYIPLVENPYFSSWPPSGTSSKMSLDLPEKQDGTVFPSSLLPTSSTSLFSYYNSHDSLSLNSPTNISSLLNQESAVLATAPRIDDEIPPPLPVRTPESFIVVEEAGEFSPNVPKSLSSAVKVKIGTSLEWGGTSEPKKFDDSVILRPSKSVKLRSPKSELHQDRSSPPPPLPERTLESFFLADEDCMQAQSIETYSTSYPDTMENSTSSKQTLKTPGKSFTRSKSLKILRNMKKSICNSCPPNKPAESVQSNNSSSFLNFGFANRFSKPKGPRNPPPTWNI

[34] = target: T7, DNA repair protein RAD52 homolog (Homo sapiens, UniProt P43351); type: functional, biochemical
T7 sequence (P43351 whole entry): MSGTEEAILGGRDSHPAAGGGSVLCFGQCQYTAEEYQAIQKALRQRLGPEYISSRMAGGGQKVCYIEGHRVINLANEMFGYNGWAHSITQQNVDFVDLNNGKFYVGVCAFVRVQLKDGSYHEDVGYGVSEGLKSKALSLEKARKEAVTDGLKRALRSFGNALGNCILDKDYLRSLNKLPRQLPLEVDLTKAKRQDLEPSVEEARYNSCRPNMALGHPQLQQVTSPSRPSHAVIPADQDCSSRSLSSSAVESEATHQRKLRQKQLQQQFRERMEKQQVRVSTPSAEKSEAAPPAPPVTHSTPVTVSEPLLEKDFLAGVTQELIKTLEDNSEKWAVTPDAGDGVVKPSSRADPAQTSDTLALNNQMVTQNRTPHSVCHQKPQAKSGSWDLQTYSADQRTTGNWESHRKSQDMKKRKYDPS

[35] = target: Matrix metalloproteinase-14 (Homo sapiens, UniProt P50281); assay: Dose Response confirmation of uHTS hits for a small molecule inhibitors of MT1-MMP activation in a fluorescence assay set 2.; type: functional
[36] = target: Tyrosine-protein phosphatase non-receptor type 11 (Homo sapiens, UniProt Q06124); assay: SHP2 phosphatase inhibition, dose response, selectivity assay for STEP inhibitor project, biochemical (AID 602367); type: functional; details: read-out: IC50_Mean
[37] = target: Tyrosine-protein phosphatase non-receptor type 5 (Homo sapiens, UniProt P54829); assay: STEP phosphatase inhibitors, confirmation, biochemical, fluorescence intensity, uHTS hits (AID 602372); type: functional; details: read-out: IC50_Mean
[38] = target: Dual specificity protein phosphatase 3 (Homo sapiens, UniProt P51452); assay: VHR phosphatase inhibition, dose response, selectivity assay for STEP inhibitor project, biochemical (AID 602374); type: functional; details: read-out: IC50_Mean
[39] = target: T6, Tyrosine-protein phosphatase non-receptor type 22; assay: PTPN22 phosphatase inhibition, dose response, selectivity assay for STEP inhibitor project, biochemical (AID 624241); type: functional

T4 sequence (P07550 whole entry): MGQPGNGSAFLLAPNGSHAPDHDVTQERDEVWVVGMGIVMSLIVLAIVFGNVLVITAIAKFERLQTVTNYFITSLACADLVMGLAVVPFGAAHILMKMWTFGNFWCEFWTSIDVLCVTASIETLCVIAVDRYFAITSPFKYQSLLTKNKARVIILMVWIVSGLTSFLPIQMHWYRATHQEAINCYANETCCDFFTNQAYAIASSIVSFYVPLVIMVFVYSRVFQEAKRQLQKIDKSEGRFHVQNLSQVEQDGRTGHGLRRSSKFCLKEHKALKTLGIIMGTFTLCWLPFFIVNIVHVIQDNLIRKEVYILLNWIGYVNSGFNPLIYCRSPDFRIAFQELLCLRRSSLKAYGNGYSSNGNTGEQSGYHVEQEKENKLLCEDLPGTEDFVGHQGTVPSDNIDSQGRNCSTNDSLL
T2 sequence (P11940 whole entry): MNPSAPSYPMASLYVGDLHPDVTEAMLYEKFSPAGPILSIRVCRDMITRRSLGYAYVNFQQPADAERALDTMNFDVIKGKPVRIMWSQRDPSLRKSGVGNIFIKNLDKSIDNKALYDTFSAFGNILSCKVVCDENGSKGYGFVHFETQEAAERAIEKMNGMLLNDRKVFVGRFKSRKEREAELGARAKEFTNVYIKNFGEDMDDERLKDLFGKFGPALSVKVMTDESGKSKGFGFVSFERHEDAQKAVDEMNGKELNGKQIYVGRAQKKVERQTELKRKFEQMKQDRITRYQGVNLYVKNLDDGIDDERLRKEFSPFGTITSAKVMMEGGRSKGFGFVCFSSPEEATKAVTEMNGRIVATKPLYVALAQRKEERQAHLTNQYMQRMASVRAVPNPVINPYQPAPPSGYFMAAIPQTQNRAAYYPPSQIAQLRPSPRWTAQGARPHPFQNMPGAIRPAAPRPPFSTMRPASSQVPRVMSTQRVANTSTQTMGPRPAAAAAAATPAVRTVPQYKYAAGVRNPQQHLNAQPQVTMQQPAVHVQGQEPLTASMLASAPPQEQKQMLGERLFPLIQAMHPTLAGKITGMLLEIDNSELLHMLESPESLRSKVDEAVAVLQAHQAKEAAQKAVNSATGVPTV
Long-chain-fatty-acid--AMP ligase FadD28, sequence (P9WQ59 whole entry): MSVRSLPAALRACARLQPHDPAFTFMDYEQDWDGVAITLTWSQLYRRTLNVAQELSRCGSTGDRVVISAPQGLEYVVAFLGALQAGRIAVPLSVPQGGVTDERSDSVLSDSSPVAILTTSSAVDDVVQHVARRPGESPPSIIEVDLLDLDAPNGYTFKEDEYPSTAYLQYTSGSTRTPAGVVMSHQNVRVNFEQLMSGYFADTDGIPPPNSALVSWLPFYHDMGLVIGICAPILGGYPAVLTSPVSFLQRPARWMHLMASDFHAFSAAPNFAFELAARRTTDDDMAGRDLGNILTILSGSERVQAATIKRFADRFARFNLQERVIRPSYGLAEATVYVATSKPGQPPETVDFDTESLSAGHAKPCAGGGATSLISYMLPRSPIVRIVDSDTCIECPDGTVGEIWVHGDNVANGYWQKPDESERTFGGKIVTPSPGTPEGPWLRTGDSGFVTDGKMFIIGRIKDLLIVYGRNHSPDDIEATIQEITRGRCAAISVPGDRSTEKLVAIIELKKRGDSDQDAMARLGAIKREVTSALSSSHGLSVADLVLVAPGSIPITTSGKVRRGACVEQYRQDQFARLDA
Beta-lactamase (Salmonella choleraesuis (strain SC-B67), UniProt Q5J463), sequence (Q5J463 whole entry): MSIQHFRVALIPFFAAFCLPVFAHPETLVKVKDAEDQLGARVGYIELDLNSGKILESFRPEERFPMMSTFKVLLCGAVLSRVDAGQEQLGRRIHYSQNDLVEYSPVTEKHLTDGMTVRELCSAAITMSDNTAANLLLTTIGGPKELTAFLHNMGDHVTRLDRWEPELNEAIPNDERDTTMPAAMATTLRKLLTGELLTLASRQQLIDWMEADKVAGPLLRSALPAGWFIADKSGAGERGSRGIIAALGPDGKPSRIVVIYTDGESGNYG
ORF 73, sequence (O40947 whole entry): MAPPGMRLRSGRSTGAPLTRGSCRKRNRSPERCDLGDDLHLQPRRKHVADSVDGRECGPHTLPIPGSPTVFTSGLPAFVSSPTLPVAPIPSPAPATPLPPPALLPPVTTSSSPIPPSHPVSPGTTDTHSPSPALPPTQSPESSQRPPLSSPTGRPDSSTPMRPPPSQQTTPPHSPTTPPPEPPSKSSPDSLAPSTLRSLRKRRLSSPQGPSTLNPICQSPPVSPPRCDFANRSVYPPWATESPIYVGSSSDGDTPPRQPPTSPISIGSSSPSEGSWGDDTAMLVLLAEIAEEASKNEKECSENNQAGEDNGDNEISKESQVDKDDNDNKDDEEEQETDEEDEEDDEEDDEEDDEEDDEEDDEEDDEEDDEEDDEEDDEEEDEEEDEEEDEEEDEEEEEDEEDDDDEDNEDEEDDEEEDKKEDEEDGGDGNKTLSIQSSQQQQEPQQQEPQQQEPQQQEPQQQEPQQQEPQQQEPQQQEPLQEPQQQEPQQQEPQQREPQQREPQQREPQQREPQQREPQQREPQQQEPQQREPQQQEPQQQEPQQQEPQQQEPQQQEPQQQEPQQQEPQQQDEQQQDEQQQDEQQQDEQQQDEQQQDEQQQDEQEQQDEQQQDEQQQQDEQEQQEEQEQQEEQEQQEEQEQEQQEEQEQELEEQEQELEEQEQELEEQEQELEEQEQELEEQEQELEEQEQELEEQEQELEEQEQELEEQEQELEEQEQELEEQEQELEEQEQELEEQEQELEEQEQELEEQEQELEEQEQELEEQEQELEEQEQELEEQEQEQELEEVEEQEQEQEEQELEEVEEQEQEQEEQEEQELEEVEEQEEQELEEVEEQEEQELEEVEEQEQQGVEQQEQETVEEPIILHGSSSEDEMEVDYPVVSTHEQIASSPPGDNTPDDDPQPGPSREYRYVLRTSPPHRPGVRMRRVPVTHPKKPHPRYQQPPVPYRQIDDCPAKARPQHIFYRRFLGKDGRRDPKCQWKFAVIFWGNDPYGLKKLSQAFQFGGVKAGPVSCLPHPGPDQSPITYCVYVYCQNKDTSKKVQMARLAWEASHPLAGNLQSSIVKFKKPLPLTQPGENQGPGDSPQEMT
Beta-lactamase (Pseudomonas aeruginosa, UniProt Q79MP6), sequence (Q79MP6 whole entry): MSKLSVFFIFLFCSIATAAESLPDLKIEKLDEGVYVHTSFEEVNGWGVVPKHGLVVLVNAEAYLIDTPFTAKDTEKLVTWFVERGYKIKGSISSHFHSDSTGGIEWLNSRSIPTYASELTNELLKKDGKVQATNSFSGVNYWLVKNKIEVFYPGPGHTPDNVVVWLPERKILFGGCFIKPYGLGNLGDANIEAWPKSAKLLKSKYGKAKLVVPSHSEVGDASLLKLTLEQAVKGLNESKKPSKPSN
Botulinum neurotoxin type F, sequence (P30996 1-436 limits assumed): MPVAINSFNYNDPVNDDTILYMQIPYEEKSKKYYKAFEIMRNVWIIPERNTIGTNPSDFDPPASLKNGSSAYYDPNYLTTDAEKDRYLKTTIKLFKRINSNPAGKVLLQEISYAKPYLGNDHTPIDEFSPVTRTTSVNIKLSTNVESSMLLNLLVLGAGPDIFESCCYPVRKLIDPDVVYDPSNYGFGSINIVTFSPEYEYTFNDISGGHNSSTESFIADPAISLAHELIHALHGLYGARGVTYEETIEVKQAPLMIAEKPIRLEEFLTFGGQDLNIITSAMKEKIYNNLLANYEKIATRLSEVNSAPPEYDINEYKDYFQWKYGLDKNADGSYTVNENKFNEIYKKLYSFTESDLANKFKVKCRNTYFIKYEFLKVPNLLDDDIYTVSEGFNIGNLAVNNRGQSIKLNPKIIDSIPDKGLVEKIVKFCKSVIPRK
Palmitoyl-protein thioesterase ABHD10, mitochondrial, sequence (Q6PE15 whole entry): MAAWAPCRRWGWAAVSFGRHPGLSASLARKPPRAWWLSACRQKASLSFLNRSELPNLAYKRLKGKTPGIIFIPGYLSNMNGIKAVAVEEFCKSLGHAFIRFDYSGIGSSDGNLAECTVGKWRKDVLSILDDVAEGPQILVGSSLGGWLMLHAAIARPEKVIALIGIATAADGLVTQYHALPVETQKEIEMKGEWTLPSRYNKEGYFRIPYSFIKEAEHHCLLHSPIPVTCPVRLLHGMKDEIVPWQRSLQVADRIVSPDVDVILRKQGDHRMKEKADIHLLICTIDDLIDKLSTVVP
Mu-type opioid receptor, sequence (P35372 whole entry): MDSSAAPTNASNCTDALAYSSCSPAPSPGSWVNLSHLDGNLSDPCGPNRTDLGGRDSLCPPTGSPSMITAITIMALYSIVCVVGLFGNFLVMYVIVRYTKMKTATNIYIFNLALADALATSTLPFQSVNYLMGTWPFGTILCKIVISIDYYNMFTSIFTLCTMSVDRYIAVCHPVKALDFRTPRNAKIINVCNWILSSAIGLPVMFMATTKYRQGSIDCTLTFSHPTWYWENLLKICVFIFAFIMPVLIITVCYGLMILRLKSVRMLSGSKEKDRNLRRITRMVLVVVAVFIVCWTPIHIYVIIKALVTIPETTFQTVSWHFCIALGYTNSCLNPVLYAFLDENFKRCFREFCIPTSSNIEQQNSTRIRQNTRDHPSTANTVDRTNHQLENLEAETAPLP
Dual specificity protein phosphatase 3, sequence (P51452 whole entry): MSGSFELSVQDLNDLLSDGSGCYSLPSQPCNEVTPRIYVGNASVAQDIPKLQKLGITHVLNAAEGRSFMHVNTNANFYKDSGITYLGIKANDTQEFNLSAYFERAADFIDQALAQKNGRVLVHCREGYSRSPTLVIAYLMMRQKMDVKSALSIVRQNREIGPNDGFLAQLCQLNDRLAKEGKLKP
Galanin receptor type 3, sequence (O60755 whole entry): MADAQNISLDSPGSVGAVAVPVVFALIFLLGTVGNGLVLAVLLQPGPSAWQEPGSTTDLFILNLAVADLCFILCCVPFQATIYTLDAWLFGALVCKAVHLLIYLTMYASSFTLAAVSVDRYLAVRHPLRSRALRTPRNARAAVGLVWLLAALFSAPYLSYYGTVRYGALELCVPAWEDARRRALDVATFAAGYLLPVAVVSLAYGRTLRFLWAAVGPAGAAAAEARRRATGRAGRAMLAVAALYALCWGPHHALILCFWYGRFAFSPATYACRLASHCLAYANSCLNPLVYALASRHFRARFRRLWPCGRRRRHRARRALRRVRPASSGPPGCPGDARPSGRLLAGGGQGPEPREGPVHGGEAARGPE

CC[C@@]1(c2ccccc2)C(=O)N(C(=O)OC(C)C)N1C(=O)OC(C)C
IC50 [1]: 0.13 µM (active)

O=C(Nc1cccnc1)c1ccc(COc2ccccc2Br)cc1
EC50 [2]: > 29.9 µM (inactive)
IC50 [3]: 4.17 µM (active)
IC50 [4]: > 29.9 µM (inactive)
EC50 [5]: > 29.9 µM (inactive)

COc1ccc(NC(=O)CSc2ccc([N+](=O)[O-])cc2)cc1S(=O)(=O)N1CCOCC1
IC50 [6]: > 66 µM (inactive)
IC50 [7]: > 66 µM (inactive)
AC50 [8]: 24.7 µM (active)

COC(=O)C[C@H]1C[C@H]2c3cc(NC(=O)CN(C)C)ccc3O[C@H]2[C@H](CO)O1
AbsAC35 [9]: 110.27 µM

CN(CC(=O)NC1CCN(Cc2ccccc2)CC1)S(=O)(=O)c1ccc(Cl)cc1
EC50 [10]: > 20 µM (inactive)

CN(C)c1ccc(/C=N/N(CCO)C2=NS(=O)(=O)c3ccccc32)cc1
IC50 [11]: 9.4 µM (active)
IC50 [12]: 8.93 µM (active)
IC50 [13]: 6.94 µM (active)
AC50 [14]: 1 µM (active)

C[C@H](CO)N1C[C@H](C)[C@@H](CN(C)Cc2ccc(Cl)c(Cl)c2)Oc2c(NC(=O)Nc3ccc(C(F)(F)F)cc3)cccc2C1=O
AC50 [15]: 10.2 µM (active)
AC50 [16]: 3.08 µM (active)

Nc1cc(N)cc(C(=O)c2ccccc2)c1
IC50 [17]: 10.4 µM (active)
IC50 [18]: 13.8 µM (active)

Clc1ccc(CN2CCN(c3ncccn3)CC2)cc1Cl
EC50 [19]: 92.5 µM (inactive)
EC50 [20]: 0.424 µM (active)

Cc1ccc(S(=O)(=O)N(C)CC(=O)N2CCN(c3ccccn3)CC2)cc1
EC50 [21]: 0.002 µM (active)
EC50 [22]: 167 nM (active) and 60.7 nM (active)

O=[N+]([O-])c1ccc(Nc2nc(Cl)nc(NCCO)n2)cc1
EC50 [23]: 4.63 µM (active)

CC(Sc1nc(-c2ccccc2)cc(C(F)(F)F)n1)C(=O)N1CCOCC1 (stereo not given)
EC50 [22]: 43.5 nM (active)
EC50 [24]: 0.0143 µM (active)

Cc1nc(O)c(C#N)cc1-c1ccccc1
IC50 [25]: 5.68 µM (active)
EC50 [26]: > 29.9 µM (inactive)
AC50 [27]: 2.43 µM (active)

O=C(NCCc1ccccc1)C(=O)NCC1OCCN1S(=O)(=O)c1ccc2c(c1)OCCO2 (stereo not given)
IC50 [28]: > 29.9 µM (inactive)
EC50 [29]: 5.13 µM (active)
IC50 [30]: 8.98 µM (active)
EC50 [31]: > 29.9 µM (inactive)

CN1/C(=C/C=C/c2n(C)c3cc([N+](=O)[O-])c([N+](=O)[O-])cc3[n+]2C)C(C)(C)c2ccccc21
IC50 [32]: 20.1 µM (inactive)
IC50 [33]: 42.2 µM (inactive)
AC50 [34]: 18.4 µM (active)
IC50 [35]: 6.17 µM (active)

Cc1c(C)c2ccc(OCC(=O)Nc3ccc(S(N)(=O)=O)cc3)c(C)c2oc1=O
IC50 [36]: 6.82 µM (active)
IC50 [37]: 22.9 µM (inactive)
IC50 [38]: 10.8 µM (active)
IC50 [39]: 44.9 µM (inactive)

— ChEMBL document CHEMBL1201862, “PubChem BioAssay data set” (2004)
